Results taken from patent US20110257148A1, “NOVEL 1-ALKYL-3-HYDROXY-3-PHENYLAZETIDINE DERIVATIVES USEFUL AS MODULATORS OF CORTICAL CATECHOLAMINERGIC NEUROTRANSMISSION” (NSAB, FILIAL AF N[…] AB, SVERIGE, priority 2008, published 2011).
Counter-ions that a name gives are not always drawn.

melting point	Compound
185 to 186 °C	CC(C)N1CC(O)(c2cc(F)cc(F)c2)C1 (as salt: fumaric acid salt)
162 to 164 °C	CCCN1CC(O)(c2cc(F)cc(F)c2)C1 (as salt: fumaric acid salt)
147 to 149 °C	CCCN1CC(O)(c2cc(F)cc(Cl)c2)C1 (as salt: fumaric acid salt)

Continued, molecule first:

Compound	melting point
CCCN1CC(O)(c2ccc(F)c(F)c2)C1 (as salt: fumaric acid salt)	157 to 159 °C
CCCN1CC(O)(c2cccc(F)c2F)C1 (as salt: fumaric acid salt) [Example 1, 3-(2,3-DIFLUOROPHENYL)-1-PROPYLAZETIDIN-3-OL]	161 to 165 °C
CCCN1CC(O)(c2cccc(Cl)c2F)C1 (as salt: fumaric acid salt) [Example 6, 3-(3-Chloro-2-Fluorophenyl)-1-Propylazetidin-3-Ol]	167 to 168 °C
